Laboratory results reported in patent US20230190924A1, “ANTIGEN OF ALLERGY AND EPITOPE THEREOF” (HOYU CO., LTD., priority 2017, published 2023).

test system: IgE antibodies from patients; experiment: Epitope mapping (2) overlapping (10-amino-acid peptides) and (3) alanine scanning on peptide arrays; format: binding, human; details: overlapping peptides with flanking sequence
Description: On the basis of the sequences (SEQ ID NOs: 272-295 for vitellogenin-2 precursor, SEQ ID NOs: 296-303 for vitellogenin-3, SEQ ID NOs: 304-311 for apolipoprotein B precursor, and SEQ ID NOs: 312-318 for vitellogenin-1 or lipovitellin-1) of the peptides bound to an IgE antibody in serum in a patient-specific manner as described above in (A), a library of overlapping peptide fragments (length: 10 amino acids) was prepared using the sequences of the peptides and sequences in which sequences were added so as to flank each peptide in the amino acid sequences of allergen components (amino acid sequences of SEQ ID NO: 59, 106 or 262 for vitellogenin-2 precursor, SEQ ID NO: 2, 13 or 47 for vitellogenin-3, SEQ ID NO: 152, 237 or 251 for apolipoprotein B, and SEQ ID NO: 18 for vitellogenin-1 or lipovitellin-1) comprising the sequences of the peptide to carry out epitope mapping.
The peptides to be synthesized were shifted by one amino acid.
The library was prepared by the same procedure as described above in (A), and the presence or absence of binding of an IgE antibody present in the serum of a patient and a non-egg-allergic subject to each peptide fragment was measured by the same technique as described above. Amino acids at positions where the binding activity against IgE antibodies from patients were lost or decreased in the peptides shifted by one amino acid while binding activity against IgE antibodies from non-egg-allergic subjects arose were confirmed as amino acids adversely affecting the specificity of binding to IgE antibodies.
Chemiluminescence intensity in images obtained by measurement was converted into a numeric value in the same manner as in (A) using ImageQuant TL (GE Healthcare). Numeric values determined from images obtained as a result of using only anti-human IgE antibody-HRP antibody without carrying out the procedures (2) and (3) described above in the subsection titled (3) Spotting of cellulose-bound peptide solution were […] numeric values determined from images obtained from results about the serum of 6 patients. It was determined that a peptide having the resulting value larger than 0 had no binding activity against IgE antibodies when having less than 20% of values obtained using the sequences (amino acid sequences of SEQ ID NO: 59, 106 or 262 for vitellogenin-2, SEQ ID NO: 2, 13 or 47 for vitellogenin-3, SEQ ID NO: 152, 237 or 251 for apolipoprotein B, and SEQ ID NO: 18 for vitellogenin-1 or lipovitellin-1) serving as the basis of overlapping, had binding activity, albeit poor, against IgE antibodies when having 20% or more and less than 50% thereof, had binding activity, albeit somewhat poor, against IgE antibodies when having 50% or more and less than 70% thereof, had almost equivalent binding activity against IgE antibodies when having 70% or more and less than 90% thereof, and had equivalent or good binding activity against IgE antibodies and thus had remaining binding activity against IgE antibodies when having 90% or more thereof.
From the amino acid sequences identified above in (A), a library of peptide fragments in which N-terminal amino acids were substituted one by one by alanine according to a technique called alanine scanning (Non Patent Literature 1) was prepared by the same technique as described above. The presence or absence of binding of an IgE antibody present in the serum of a patient and a non-egg-allergic subject to each peptide fragment was measured by the same technique as described above. Amino acids at positions where the binding activity against IgE antibodies from patients were lost or decreased by the substitution by alanine while binding activity against IgE antibodies from non-egg-allergic subjects arose were confirmed as amino acids important for exertion of original antigenicity, or amino acids influencing exertion of original antigenicity.

Substance | binding to IgE antibodies from patients, sequence comprising a region amino-terminally adjacent to the epitope | binding to IgE antibodies from patients, sequence comprising a region carboxy-terminally adjacent to the epitope
SEQ ID NO: 471: sequence comprising a region amino-terminally adjacent to epitope 20 (GEATNLKAIN; epitope) | binding to IgE antibodies from patients | –
SEQ ID NO: 503: sequence comprising a region amino-terminally adjacent to epitope 21 (GFALAAPGHG; epitope) | binding to IgE antibodies from patients | –
SEQ ID NO: 553: sequence comprising a region amino-terminally adjacent to epitope 33 (IVTLAEKYDL; epitope) | binding to IgE antibodies from patients | –
SEQ ID NO: 480: sequence comprising a region amino-terminally adjacent to epitope 20 (AGEATNLKAI; epitope) | binding to IgE antibodies from patients | –
SEQ ID NO: 380: sequence comprising a region carboxy-terminally adjacent to epitope 8 (ELPTETPLVS; epitope) | – | binding to IgE antibodies from patients
SEQ ID NO: 497: sequence comprising a region amino-terminally adjacent to epitope 21 (GFALAAPGHG; epitope) | binding to IgE antibodies from patients | –
SEQ ID NO: 466: sequence comprising a region carboxy-terminally adjacent to epitope 19 (FNYSMPANCY; epitope) | – | binding to IgE antibodies from patients
SEQ ID NO: 632: sequence comprising a region carboxy-terminally adjacent to epitope 41 (QELLFGRLDK; epitope) | – | binding to IgE antibodies from patients
SEQ ID NO: 623: sequence comprising a region amino-terminally adjacent to epitope 40 (GRYLHLAAVN; epitope) | binding to IgE antibodies from patients | –
SEQ ID NO: 385: sequence comprising a region amino-terminally adjacent to epitope 8 (ELGKALQGWK; epitope) | binding to IgE antibodies from patients | –

Next, values leading:

binding to IgE antibodies from patients, sequence comprising a region amino-terminally adjacent to the epitope | binding to IgE antibodies from patients, sequence comprising a region carboxy-terminally adjacent to the epitope | Substance
binding to IgE antibodies from patients | – | SEQ ID NO: 359: sequence comprising a region amino-terminally adjacent to epitope 6 (VVNSPRTMF; epitiope)
binding to IgE antibodies from patients | – | SEQ ID NO: 451: sequence comprising a region amino-terminally adjacent to epitope 17 (FVTNLTDSSK; epitope)
– | binding to IgE antibodies from patients | SEQ ID NO: 357: sequence comprising a region carboxy-terminally adjacent to epitope 5 (KLDSMSYRY; epitope)
binding to IgE antibodies from patients | – | SEQ ID NO: 324: sequence comprising a region amino-terminally adjacent to epitope 2 (MFQMTIKKS; epitope)
– | binding to IgE antibodies from patients | SEQ ID NO: 609: sequence comprising a region carboxy-terminally adjacent to epitope 38 (LQMSSSV; epitope)
binding to IgE antibodies from patients | – | SEQ ID NO: 353: sequence comprising a region amino-terminally adjacent to epitope 5 (CNIALKLLSP; epitope)
– | binding to IgE antibodies from patients | SEQ ID NO: 515: sequence comprising a region carboxy-terminally adjacent to epitope 22 (GYLAKNAVSF; epitope)
– | binding to IgE antibodies from patients | SEQ ID NO: 676: sequence comprising a region carboxy-terminally adjacent to epitope 47 (PIEKIQVTI; epitope)

same assay, conditions: procedures (B) overlapping and (C) alanine scanning

Substance | region within the epitope important for binding to IgE antibodies from patients
SEQ ID NO: 323: region in epitope 1 (VEEYNG; epitope) | important for binding
SEQ ID NO: 356: region in epitope 5 (KLDS; epitope) | important for binding
SEQ ID NO: 482: region in epitope 20 (ATNLKAINI; epitope) | important for binding
SEQ ID NO: 561: region in epitope 34 (DEPLN; epitope) | important for binding
SEQ ID NO: 470: region in epitope 20 (EATNLKAIN; epitope) | important for binding
SEQ ID NO: 449: region in epitope 16 (RKLPGDRATS; epitope) | important for binding
SEQ ID NO: 641: region in epitope 41 (SGYLKMF; epitope) | important for binding

Next, values leading:

region within the epitope important for binding to IgE antibodies from patients | Substance
important for binding | SEQ ID NO: 649: region in epitope 42 (DTLQNVLQ; epitope)
important for binding | SEQ ID NO: 669: region in epitope 47 (YSDVPIEKI; epitope)
important for binding | SEQ ID NO: 350: region in epitope 4 (AWKDPKTV; epitope)
important for binding | SEQ ID NO: 617: region in epitope 39 (LLDR; epitope)
important for binding | SEQ ID NO: 528: region in epitope 26 (GLLIS; epitope)
important for binding | SEQ ID NO: 331: region in epitope 3 (KMKLALKCIG; epitope)
important for binding | SEQ ID NO: 494: region in epitope 21 (DKLYFD; epitope)
important for binding | SEQ ID NO: 486: region in epitope 20 (KAINIKIGS; epitope)
important for binding | SEQ ID NO: 674: region in epitope 47 (YSDVPIEK; epitope)
important for binding | SEQ ID NO: 419: region in epitope 11 (DVKLKNLK; epitope)
